Laboratory results taken from article PMC10085060 (Oncotarget, 2023).

How the values were obtained:
[1] = Day 10 of riluzole single agent treatment (100 mg BID), advanced melanoma patients, n = 9; cited from earlier work
RAF1 = settings: cited from earlier work
[2] = Drug related adverse events (CTCAE version 4.0); assay type: in vivo, human
Procedure: Safety assessments including complete blood counts, serum chemistries, liver enzymes and toxicity evaluations were completed at baseline, day 1 and 15 of cycle 1, and then day 1 of every cycle thereafter. Toxicities were evaluated and graded using the CTEP NCI Common Terminology Criteria for Adverse Events (CTCAE), version 4.0.

[3] = drug related AE, Grade ≥3, n=35
[4] = drug related AE, any grade, n=35

Nc1nc2ccc(OC(F)(F)F)cc2s1 [riluzole]
riluzole trough levels, geomean [1]: 78.4 ng/mL

CNC(=O)c1cc(Oc2ccc(NC(=O)Nc3ccc(Cl)c(C(F)(F)F)c3)cc2)ccn1 [sorafenib]
IC50 (RAF1): […] | Abdominal Pain [2, 3]: 0 | Alkaline Phosphatase Increase [2, 3]: 2 | Anemia [2, 3]: 1 | Anorexia [2, 3]: 0 | Arthralgia [2, 3]: 1 | Cardiac troponin I increased [2, 3]: 1 | Congestive Heart Failure [2, 3]: 1 | Fatigue [2, 3]: 4 | Hypertension [2, 3]: 1 | Hypokalemia [2, 3]: 1 | Hyponatremia [2, 3]: 2 | Hypophosphatemia [2, 3]: 4 | Lipase Increase [2, 3]: 2 | Lymphocyte Count Decrease [2, 3]: 6 | Maculopapular Rash [2, 3]: 4 | Myocardial infarction [2, 3]: 1 | Neutrophil count decrease [2, 3]: 0 | Palmar-plantar erythrodysesthesia syndrome [2, 3]: 1 | Pruritus [2, 3]: 1 | White Blood Cell Decreased [2, 3]: 2 | Wound complication [2, 3]: 1 | Abdominal Pain [2, 4]: 0 | Acute Coronary Syndrome [2, 4]: 1 | Acute Kidney Injury [2, 4]: 0 | Alanine Aminotransferase Increase [2, 4]: 1 | Alkaline Phosphatase Increase [2, 4]: 2 | Alopecia [2, 4]: 0 | Anemia [2, 4]: 8 | Anorexia [2, 4]: 6 | Arthralgia [2, 4]: 1 | Aspartate Aminotransferase Increase [2, 4]: 3 | Ataxia [2, 4]: 0 | Blood Bilirubin Increase [2, 4]: 2 | Blurred vision [2, 4]: 0 | Bullous dermatitis [2, 4]: 1 | Cardiac troponin I increased [2, 4]: 1 | Congestive Heart Failure [2, 4]: 1 | Cough [2, 4]: 0 | Depression [2, 4]: 0 | Diarrhea [2, 4]: 8 | Dizziness [2, 4]: 0 | Dry Mouth [2, 4]: 1 | Dry skin [2, 4]: 4 | Dysarthria [2, 4]: 0 | Dysgeusia [2, 4]: 1 | Dyspepsia [2, 4]: 1 | Dyspnea [2, 4]: 0 | Edema (limbs) [2, 4]: 1 | Fatigue [2, 4]: 13 | Fecal Incontinence [2, 4]: 1 | Fever [2, 4]: 0 | Flatulence [2, 4]: 0 | Gastrointestinal Fistula [2, 4]: 1 | Gastroparesis [2, 4]: 0 | Headache [2, 4]: 0 | Hoarseness [2, 4]: 0 | Hypercalcemia [2, 4]: 1 | Hyperglycemia [2, 4]: 4 | Hyperkalemia [2, 4]: 3 | Hypertension [2, 4]: 6 | Hypoalbuminemia [2, 4]: 3 | Hypocalcemia [2, 4]: 2 | Hypokalemia [2, 4]: 1 | Hypomagnesemia [2, 4]: 2 | Hyponatremia [2, 4]: 7 | Hypophosphatemia [2, 4]: 11 | Hypotension [2, 4]: 1 | Hypothyroidism [2, 4]: 1 | Increased blood urea nitrogen [2, 4]: 1 | Insomnia [2, 4]: 0 | Lipase Increase [2, 4]: 5 | Lymphocyte Count Decrease [2, 4]: 10 | Maculopapular Rash [2, 4]: 11 | Mucosal infection [2, 4]: 1 | Mucositis oral [2, 4]: 5 | Muscle weakness [2, 4]: 1 | Myalgia [2, 4]: 0 | Myocardial infarction [2, 4]: 1 | Nausea [2, 4]: 2 | Neutrophil count decrease [2, 4]: 0 | Oral pain [2, 4]: 1 | Palmar-plantar erythrodysesthesia syndrome [2, 4]: 11 | Peripheral Sense Neuropathy [2, 4]: 1 | Platelet Count Decrease [2, 4]: 3 | Pruritus [2, 4]: 4 | Serum amylase increased [2, 4]: 3 | Urinary Tract Infection [2, 4]: 1 | Voice Alteration [2, 4]: […] | Vomiting [2, 4]: 1 | Weight Loss [2, 4]: 2 | White Blood Cell Decreased [2, 4]: 2 | Would dehiscence [2, 4]: 1 | Wound complication [2, 4]: 1 | patients with toxicities attributed to the drug (alone), number ([2]; of 35 patients): 28 | patients with toxicities attributed to the drug by the treating investigator ([2]; of 35 patients): 80%
